Assay results reported in PubChem BioAssay (NCI).
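Growth conditions: 96-well plates. Treatment: test compound, 48 hours, 5 concentrations. Analysis: linear interpolation between bracketing concentrations; unreached endpoints set to highest concentration. TGI: concentration producing complete growth inhibition.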

Assays:
Test in all cases: NCI anticancer screen, dose series, 48 h
786-0 renal = system: 786-0 renal
A498 renal = system: A498 renal
A549 NSCLC = system: A549 NSCLC
ACHN renal = system: ACHN renal
CAKI-1 renal = system: CAKI-1 renal
CCRF-CEM leukemia = system: CCRF-CEM leukemia
COLO 205 colon = system: COLO 205 colon
DLD-1 colon = system: DLD-1 colon
DMS 114 small cell lung = system: DMS 114 small cell lung
DMS 273 small cell lung = system: DMS 273 small cell lung
EKVX NSCLC = system: EKVX NSCLC
HCC-2998 colon = system: HCC-2998 colon
HCT-116 colon = system: HCT-116 colon
HCT-15 colon = system: HCT-15 colon
HL-60(TB) leukemia = system: HL-60(TB) leukemia
HOP-18 NSCLC = system: HOP-18 NSCLC
HOP-62 NSCLC = system: HOP-62 NSCLC
HOP-92 NSCLC = system: HOP-92 NSCLC
HT29 colon = system: HT29 colon
IGROV1 ovarian = system: IGROV1 ovarian
K-562 leukemia = system: K-562 leukemia
KM12 colon = system: KM12 colon
KM20L2 colon = system: KM20L2 colon
LOX IMVI melanoma = system: LOX IMVI melanoma
LXFL 529 NSCLC = system: LXFL 529 NSCLC
M14 melanoma = system: M14 melanoma
M19-MEL melanoma = system: M19-MEL melanoma
MALME-3M melanoma = system: MALME-3M melanoma
MOLT-4 leukemia = system: MOLT-4 leukemia
NCI-H226 lung = system: NCI-H226 lung
NCI-H23 lung = system: NCI-H23 lung
NCI-H460 lung = system: NCI-H460 lung
NCI-H522 lung = system: NCI-H522 lung
OVCAR-3 ovarian = system: OVCAR-3 ovarian
OVCAR-4 ovarian = system: OVCAR-4 ovarian
OVCAR-5 ovarian = system: OVCAR-5 ovarian
OVCAR-8 ovarian = system: OVCAR-8 ovarian
RPMI-8226 leukemia = system: RPMI-8226 leukemia
RXF 393 renal = system: RXF 393 renal
RXF-631 renal = system: RXF-631 renal
SF-268 CNS = system: SF-268 CNS
SF-295 CNS = system: SF-295 CNS
SF-539 CNS = system: SF-539 CNS
SK-MEL-2 melanoma = system: SK-MEL-2 melanoma
SK-MEL-28 melanoma = system: SK-MEL-28 melanoma
SK-MEL-5 melanoma = system: SK-MEL-5 melanoma
SK-OV-3 ovarian = system: SK-OV-3 ovarian
SN12C renal = system: SN12C renal
SNB-19 CNS = system: SNB-19 CNS
SNB-75 CNS = system: SNB-75 CNS
SNB-78 CNS = system: SNB-78 CNS
SR leukemia = system: SR leukemia
SW-620 colon = system: SW-620 colon
TK-10 renal = system: TK-10 renal
U251 CNS = system: U251 CNS
UACC-257 melanoma = system: UACC-257 melanoma
UACC-62 melanoma = system: UACC-62 melanoma
UO-31 renal = system: UO-31 renal
XF 498 CNS = system: XF 498 CNS

For `COc1ccc(NC(=O)C(=O)NO)c(OC)c1`, which TGI (786-0 renal) is on record?
The TGI was 29.6 µM.

What about the TGI (A498 renal) of the same molecule?
Its TGI is 39 µM.

What about the TGI (A549 NSCLC) of the same molecule?
The TGI was 35.4 µM.

What about the TGI (ACHN renal) of the same molecule?
The TGI was 29.3 µM.

What about the TGI (CAKI-1 renal) of the same molecule?
The TGI was 27.3 µM.

And the TGI (CCRF-CEM leukemia)?
The TGI was 98 µM.

What about the TGI (COLO 205 colon) of the same molecule?
Its TGI is 37.7 µM.

And the TGI (DLD-1 colon)?
Its TGI is 41 µM.

And the TGI (DMS 114 small cell lung)?
Its TGI is 29 µM.

What about the TGI (DMS 273 small cell lung) of the same molecule?
The TGI was 35.3 µM.

What about the TGI (EKVX NSCLC) of the same molecule?
Its TGI is 28.7 µM.

And the TGI (HCC-2998 colon)?
The TGI was 35.8 µM.

And the TGI (HCT-116 colon)?
Its TGI is 32.4 µM.

What about the TGI (HCT-15 colon) of the same molecule?
The TGI was 31.2 µM.

What about the TGI (HL-60(TB) leukemia) of the same molecule?
The TGI was 43 µM.

What about the TGI (HOP-18 NSCLC) of the same molecule?
The TGI was 31.1 µM.

And the TGI (HOP-62 NSCLC)?
The TGI was 35.1 µM.

What about the TGI (HOP-92 NSCLC) of the same molecule?
Its TGI is 35.7 µM.

What about the TGI (HT29 colon) of the same molecule?
The TGI was 38.1 µM.

And the TGI (IGROV1 ovarian)?
Its TGI is 32 µM.

And the TGI (K-562 leukemia)?
Its TGI is 56.4 µM.

And the TGI (KM12 colon)?
Its TGI is 34.2 µM.

And the TGI (KM20L2 colon)?
Its TGI is 33.3 µM.

And the TGI (LOX IMVI melanoma)?
The TGI was 27.2 µM.

What about the TGI (LXFL 529 NSCLC) of the same molecule?
The TGI was 30.3 µM.

And the TGI (M14 melanoma)?
Its TGI is 29.9 µM.

What about the TGI (M19-MEL melanoma) of the same molecule?
Its TGI is 38.9 µM.

What about the TGI (MALME-3M melanoma) of the same molecule?
The TGI was 54.6 µM.

What about the TGI (MOLT-4 leukemia) of the same molecule?
Its TGI is 35.2 µM.

And the TGI (NCI-H226 lung)?
Its TGI is 41.6 µM.

And the TGI (NCI-H23 lung)?
Its TGI is 34.1 µM.

What about the TGI (NCI-H460 lung) of the same molecule?
Its TGI is 33.4 µM.

And the TGI (NCI-H522 lung)?
The TGI was 19 µM.

And the TGI (OVCAR-3 ovarian)?
Its TGI is 30.3 µM.

And the TGI (OVCAR-4 ovarian)?
The TGI was 37.7 µM.

What about the TGI (OVCAR-5 ovarian) of the same molecule?
Its TGI is 33.6 µM.

And the TGI (OVCAR-8 ovarian)?
The TGI was 33.3 µM.

And the TGI (RPMI-8226 leukemia)?
The TGI was 49.1 µM.

What about the TGI (RXF 393 renal) of the same molecule?
Its TGI is 29.2 µM.

And the TGI (RXF-631 renal)?
Its TGI is 57 µM.

What about the TGI (SF-268 CNS) of the same molecule?
The TGI was 32.1 µM.

What about the TGI (SF-295 CNS) of the same molecule?
Its TGI is 27 µM.

What about the TGI (SF-539 CNS) of the same molecule?
Its TGI is 36.3 µM.

And the TGI (SK-MEL-2 melanoma)?
The TGI was 30.9 µM.

What about the TGI (SK-MEL-28 melanoma) of the same molecule?
The TGI was 33.1 µM.

What about the TGI (SK-MEL-5 melanoma) of the same molecule?
The TGI was 32.5 µM.

And the TGI (SK-OV-3 ovarian)?
The TGI was 33.7 µM.

And the TGI (SN12C renal)?
Its TGI is 39.6 µM.

And the TGI (SNB-19 CNS)?
The TGI was 28.2 µM.

What about the TGI (SNB-75 CNS) of the same molecule?
Its TGI is 35.3 µM.

And the TGI (SNB-78 CNS)?
The TGI was 44.1 µM.

What about the TGI (SR leukemia) of the same molecule?
The TGI was 25.9 µM.

And the TGI (SW-620 colon)?
Its TGI is 34.5 µM.

What about the TGI (TK-10 renal) of the same molecule?
The TGI was 37.1 µM.

What about the TGI (U251 CNS) of the same molecule?
Its TGI is 30.5 µM.

And the TGI (UACC-257 melanoma)?
The TGI was 38 µM.

And the TGI (UACC-62 melanoma)?
The TGI was 28.9 µM.

What about the TGI (UO-31 renal) of the same molecule?
Its TGI is 29.8 µM.

With `c1ccc(C(c2ccccc2)c2ccncc2)cc1` as the molecule, how does the TGI (786-0 renal) read?
The TGI was > 100 µM.

And the TGI (A498 renal)?
The TGI was > 100 µM.

What about the TGI (A549 NSCLC) of the same molecule?
The TGI was > 100 µM.

And the TGI (ACHN renal)?
The TGI was > 100 µM.

And the TGI (CAKI-1 renal)?
The TGI was > 100 µM.

And the TGI (CCRF-CEM leukemia)?
The TGI was > 100 µM.

And the TGI (COLO 205 colon)?
The TGI was > 100 µM.

What about the TGI (DLD-1 colon) of the same molecule?
The TGI was > 100 µM.

And the TGI (DMS 114 small cell lung)?
Its TGI is > 100 µM.

What about the TGI (DMS 273 small cell lung) of the same molecule?
Its TGI is > 100 µM.

What about the TGI (EKVX NSCLC) of the same molecule?
The TGI was > 100 µM.

And the TGI (HCC-2998 colon)?
The TGI was > 100 µM.

What about the TGI (HCT-116 colon) of the same molecule?
Its TGI is > 100 µM.

What about the TGI (HCT-15 colon) of the same molecule?
Its TGI is > 100 µM.

What about the TGI (HOP-18 NSCLC) of the same molecule?
The TGI was > 100 µM.

What about the TGI (HOP-62 NSCLC) of the same molecule?
The TGI was > 100 µM.

And the TGI (HT29 colon)?
The TGI was > 100 µM.

What about the TGI (IGROV1 ovarian) of the same molecule?
Its TGI is > 100 µM.

What about the TGI (K-562 leukemia) of the same molecule?
The TGI was > 100 µM.

And the TGI (KM12 colon)?
Its TGI is > 100 µM.

And the TGI (KM20L2 colon)?
Its TGI is > 100 µM.

And the TGI (LOX IMVI melanoma)?
Its TGI is > 100 µM.

And the TGI (M14 melanoma)?
Its TGI is > 100 µM.

And the TGI (M19-MEL melanoma)?
The TGI was > 100 µM.

What about the TGI (MALME-3M melanoma) of the same molecule?
Its TGI is > 100 µM.

And the TGI (MOLT-4 leukemia)?
Its TGI is > 100 µM.

And the TGI (NCI-H226 lung)?
The TGI was > 100 µM.

What about the TGI (NCI-H23 lung) of the same molecule?
The TGI was > 100 µM.

What about the TGI (NCI-H460 lung) of the same molecule?
The TGI was > 100 µM.

And the TGI (OVCAR-3 ovarian)?
The TGI was > 100 µM.

What about the TGI (OVCAR-4 ovarian) of the same molecule?
The TGI was > 100 µM.

And the TGI (OVCAR-5 ovarian)?
The TGI was > 100 µM.

What about the TGI (OVCAR-8 ovarian) of the same molecule?
Its TGI is > 100 µM.

And the TGI (RPMI-8226 leukemia)?
The TGI was > 100 µM.

What about the TGI (RXF-631 renal) of the same molecule?
Its TGI is > 100 µM.

And the TGI (SF-268 CNS)?
Its TGI is > 100 µM.

And the TGI (SF-295 CNS)?
The TGI was > 100 µM.

What about the TGI (SF-539 CNS) of the same molecule?
The TGI was > 100 µM.

And the TGI (SK-MEL-2 melanoma)?
Its TGI is > 100 µM.

What about the TGI (SK-MEL-28 melanoma) of the same molecule?
Its TGI is > 100 µM.

What about the TGI (SK-MEL-5 melanoma) of the same molecule?
The TGI was > 100 µM.

What about the TGI (SK-OV-3 ovarian) of the same molecule?
Its TGI is > 100 µM.

And the TGI (SN12C renal)?
The TGI was > 100 µM.

And the TGI (SNB-19 CNS)?
The TGI was > 100 µM.

And the TGI (SNB-75 CNS)?
Its TGI is 74.3 µM.

What about the TGI (SNB-78 CNS) of the same molecule?
The TGI was > 100 µM.

And the TGI (SW-620 colon)?
Its TGI is > 100 µM.

What about the TGI (TK-10 renal) of the same molecule?
Its TGI is > 100 µM.

And the TGI (U251 CNS)?
Its TGI is > 100 µM.

And the TGI (UACC-257 melanoma)?
The TGI was > 100 µM.

What about the TGI (UACC-62 melanoma) of the same molecule?
The TGI was > 100 µM.

What about the TGI (UO-31 renal) of the same molecule?
Its TGI is > 100 µM.

And the TGI (XF 498 CNS)?
The TGI was > 100 µM.
